Assay results reported in ChEMBL document CHEMBL1201862, “PubChem BioAssay data set” (2004).
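Values below derive from 48-hour exposures of cells grown in 96-well plates, with endpoints linearly interpolated between the two concentrations bracketing the appropriate inhibition level. At the GI50, growth is halved.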 Active and inactive are the calls of the source. Rule as the data show it: active = GI50 up to about 1.1 µM and inactive = higher.

Assays:
Test in all cases: growth of human tumour cells (NCI), 48 h
[1] = tested on: COLO 205
[2] = tested on: EKVX
[3] = tested on: HCT-116
[4] = tested on: HCT-15
[5] = tested on: HOP-92
[6] = tested on: HT-29
[7] = tested on: KM12
[8] = tested on: M14
[9] = tested on: OVCAR-5
[10] = tested on: OVCAR-8
[11] = tested on: RXF 393
[12] = tested on: SF-295
[13] = tested on: SN12C
[14] = tested on: TK-10
[15] = tested on: U-251
[16] = tested on: UO-31
[17] = tested on: RPMI-8226

| Structure (SMILES) | GI50 [1] | GI50 [2] | GI50 [3] | GI50 [4] | GI50 [5] | GI50 [6] | GI50 [7] | GI50 [8] | GI50 [9] | GI50 [10] | GI50 [11] | GI50 [12] | GI50 [13] | GI50 [14] | GI50 [15] | GI50 [16] | GI50 [17] |
| --- | --- | --- | --- | --- | --- | --- | --- | --- | --- | --- | --- | --- | --- | --- | --- | --- | --- |
| CCOC(=O)C1S/C(=N\c2ccc(Cl)cc2Cl)N=C1C (centres undefined) | > 100 µM (inactive) | > 100 µM (inactive) | 65.6 µM (inactive) | > 100 µM | 20.6 µM (inactive) | > 100 µM (inactive) | > 100 µM (inactive) | 81.8 µM (inactive) | > 100 µM (inactive) | 74.6 µM (inactive) | 27.5 µM (inactive) | 32.1 µM (inactive) | > 100 µM (inactive) | > 100 µM (inactive) | 58.1 µM (inactive) | > 100 µM (inactive) |  |
| CC1(C)N=C(N)N=C(N)N1c1ccc(CCc2ccccc2)cc1 | 1.36 µM (inactive) | 0.622 µM (active) | 0.619 µM (active) | 37.9 µM | 22.1 µM (inactive) | 0.565 µM (active) | 1.42 µM (inactive) |  | 1.92 µM (inactive) | 2.53 µM (inactive) | > 20.9 µM (inactive) | 2.17 µM (inactive) | 0.759 µM (active) |  | 0.435 µM (active) | > 34.1 µM (inactive) | 17.4 µM (inactive) |
| Clc1cc2nsnc2c(Cl)n1 | 15.3 µM (inactive) | > 100 µM (inactive) |  | 21.3 µM | 16.6 µM (inactive) | 21.7 µM (inactive) | 47.2 µM (inactive) | 15.2 µM (inactive) | 43 µM (inactive) |  |  | 41.5 µM (inactive) |  | 20.9 µM (inactive) | 20.3 µM (inactive) | 20.6 µM (inactive) | 22.2 µM (inactive) |
| COc1ccc(C(c2ccc(C(C)C)cc(=O)c2O)c2ccc3cccnc3c2O)cc1 (centres undefined) | 1.05 µM (active) | 1.27 µM (inactive) | 0.318 µM (active) | 0.449 µM | 0.235 µM (active) | 3.07 µM (inactive) | 1.45 µM (inactive) | 0.933 µM (active) | 1.58 µM (inactive) | 1.08 µM (active) |  | 0.337 µM (active) | 0.415 µM (active) |  | 0.438 µM (active) | 0.421 µM (active) | 1.97 µM (inactive) |
| Cc1c2ccncc2c(C)c2c1[nH]c1ccccc12 [ELLIPTECINE] | 0.502 µM (active) | 0.933 µM (active) | 0.272 µM (active) | 0.402 µM | 0.538 µM (active) | 0.863 µM (active) | 0.473 µM (active) |  | 1.46 µM (inactive) | 0.406 µM (active) | 0.288 µM (active) | 0.805 µM (active) | 1.06 µM (active) |  | 0.771 µM (active) | 1.95 µM (inactive) | 0.617 µM (active) |
| O=C1C(=C2CCCC2)CCC1CN1CCCCC1 (centres undefined) | 25.7 µM (inactive) | 18.8 µM (inactive) | 18.6 µM (inactive) | 16.3 µM | 19.5 µM (inactive) | 20.4 µM (inactive) | 18.6 µM (inactive) | 15.7 µM (inactive) | 19.8 µM (inactive) | 21.5 µM (inactive) | 16.4 µM (inactive) | > 100 µM (inactive) | 16.8 µM (inactive) | 14.1 µM (inactive) | > 100 µM (inactive) | > 100 µM (inactive) |  |
| C=CC1(C)CCC2=C(CCC3C(C)(C(=O)OC)CCCC23C)C1=O (centres undefined) | 19.1 µM (inactive) | 18.7 µM (inactive) | 17.3 µM (inactive) | 20.6 µM |  | 17 µM (inactive) | 17.4 µM (inactive) | 20.8 µM (inactive) | 16 µM (inactive) | 29.8 µM (inactive) |  | 27 µM (inactive) | 19 µM (inactive) | 19.9 µM (inactive) | 15.6 µM (inactive) | 20.8 µM (inactive) | 21.7 µM (inactive) |
| O=C1c2ccccc2C(O)(C(=O)O)C1(O)CC=C(Cl)Cl (centres undefined) | > 125 µM (inactive) | > 125 µM (inactive) | > 125 µM (inactive) | > 125 µM | > 74.6 µM (inactive) | > 125 µM (inactive) | > 125 µM (inactive) |  | > 125 µM (inactive) | > 125 µM (inactive) | > 125 µM (inactive) | > 125 µM (inactive) | > 125 µM (inactive) |  | > 28.2 µM (inactive) | > 112 µM (inactive) | > 125 µM (inactive) |
| O=C(NCCCl)O/N=C/c1cccnc1 | > 100 µM (inactive) | > 100 µM (inactive) | > 100 µM (inactive) | > 100 µM | > 100 µM (inactive) | > 100 µM (inactive) | > 100 µM (inactive) |  | > 100 µM (inactive) | > 100 µM (inactive) |  | > 100 µM (inactive) | > 100 µM (inactive) |  | > 100 µM (inactive) | > 100 µM (inactive) | > 100 µM (inactive) |
| CC(C)CCCC(C)[C@H]1CCC(C2C[C@@H](O)[C@@H]3CC(O)[C@@H](O)C[C@]3(CO)C2=O)[C@]1(C)CCO (some centres undefined) | 20 µM (inactive) | > 57.8 µM (inactive) | 20 µM (inactive) | 28.8 µM |  | 19.5 µM (inactive) | 14.3 µM (inactive) |  | 23.2 µM (inactive) | > 50.1 µM (inactive) | 24.9 µM (inactive) | 20.4 µM (inactive) | 30.2 µM (inactive) |  | 19.4 µM (inactive) | 23 µM (inactive) | 27.1 µM (inactive) |
| CCn1c(=O)c(C(=O)O)c(Cl)c2cc3c(cc21)OCO3 | > 100 µM (inactive) | > 100 µM (inactive) | > 100 µM (inactive) | > 100 µM | > 100 µM (inactive) | > 100 µM (inactive) | > 100 µM (inactive) |  | > 100 µM (inactive) | > 100 µM (inactive) | > 100 µM (inactive) | > 100 µM (inactive) | > 100 µM (inactive) |  | > 100 µM (inactive) | > 100 µM (inactive) | > 100 µM (inactive) |
| CC12CC3CC(C1)CC(N=[N+]=[N-])(C3)C2 | > 100 µM (inactive) | > 100 µM (inactive) | > 100 µM (inactive) |  | > 100 µM (inactive) | > 100 µM (inactive) | > 100 µM (inactive) | > 100 µM (inactive) | > 100 µM (inactive) | > 100 µM (inactive) |  | > 100 µM (inactive) | > 100 µM (inactive) | > 100 µM (inactive) | > 100 µM (inactive) | > 100 µM (inactive) | > 100 µM (inactive) |
| C/C=C(\C)C(=O)OC1C2C(C)=CC(=O)C(O)C2(C)C2C3(O)OCC24C1OC(=O)C(OC(C)=O)C4C(C)C3O (centres undefined) | 0.0719 µM (active) | 0.046 µM (active) | 0.0375 µM (active) | 0.0741 µM | 0.0388 µM (active) | 0.0385 µM (active) | 0.0375 µM (active) |  | 0.111 µM (active) | 0.0396 µM (active) | 0.0375 µM (active) | 0.0402 µM (active) | 0.0741 µM (active) |  | 0.0375 µM (active) | 0.195 µM (active) | 0.0375 µM (active) |
| COc1ccc(C(=O)C(C(=O)C(=O)NC2C3CC4CC(C3)CC2C4)c2ccc(OC)cc2)cc1 (centres undefined) | > 100 µM (inactive) | > 100 µM (inactive) | > 100 µM (inactive) | > 100 µM | > 100 µM (inactive) | > 100 µM (inactive) | > 100 µM (inactive) | > 100 µM (inactive) | > 100 µM (inactive) | > 100 µM (inactive) |  | > 100 µM (inactive) | > 100 µM (inactive) | > 100 µM (inactive) | > 100 µM (inactive) | > 100 µM (inactive) | > 100 µM (inactive) |
